Data from ChEMBL document CHEMBL4261555, “Identification of a potent kinase inhibitor targeting EML4-ALK fusion protein in non-small cell lung cancer” (Medchemcomm, 2017).
The source made the active and inactive calls. The rule behind the calls is not given here.

Tests used:
[1] = target: T1, ALK tyrosine kinase receptor (Homo sapiens, UniProt Q9UM73)
Target sequence in this assay (Q9UM73 whole entry): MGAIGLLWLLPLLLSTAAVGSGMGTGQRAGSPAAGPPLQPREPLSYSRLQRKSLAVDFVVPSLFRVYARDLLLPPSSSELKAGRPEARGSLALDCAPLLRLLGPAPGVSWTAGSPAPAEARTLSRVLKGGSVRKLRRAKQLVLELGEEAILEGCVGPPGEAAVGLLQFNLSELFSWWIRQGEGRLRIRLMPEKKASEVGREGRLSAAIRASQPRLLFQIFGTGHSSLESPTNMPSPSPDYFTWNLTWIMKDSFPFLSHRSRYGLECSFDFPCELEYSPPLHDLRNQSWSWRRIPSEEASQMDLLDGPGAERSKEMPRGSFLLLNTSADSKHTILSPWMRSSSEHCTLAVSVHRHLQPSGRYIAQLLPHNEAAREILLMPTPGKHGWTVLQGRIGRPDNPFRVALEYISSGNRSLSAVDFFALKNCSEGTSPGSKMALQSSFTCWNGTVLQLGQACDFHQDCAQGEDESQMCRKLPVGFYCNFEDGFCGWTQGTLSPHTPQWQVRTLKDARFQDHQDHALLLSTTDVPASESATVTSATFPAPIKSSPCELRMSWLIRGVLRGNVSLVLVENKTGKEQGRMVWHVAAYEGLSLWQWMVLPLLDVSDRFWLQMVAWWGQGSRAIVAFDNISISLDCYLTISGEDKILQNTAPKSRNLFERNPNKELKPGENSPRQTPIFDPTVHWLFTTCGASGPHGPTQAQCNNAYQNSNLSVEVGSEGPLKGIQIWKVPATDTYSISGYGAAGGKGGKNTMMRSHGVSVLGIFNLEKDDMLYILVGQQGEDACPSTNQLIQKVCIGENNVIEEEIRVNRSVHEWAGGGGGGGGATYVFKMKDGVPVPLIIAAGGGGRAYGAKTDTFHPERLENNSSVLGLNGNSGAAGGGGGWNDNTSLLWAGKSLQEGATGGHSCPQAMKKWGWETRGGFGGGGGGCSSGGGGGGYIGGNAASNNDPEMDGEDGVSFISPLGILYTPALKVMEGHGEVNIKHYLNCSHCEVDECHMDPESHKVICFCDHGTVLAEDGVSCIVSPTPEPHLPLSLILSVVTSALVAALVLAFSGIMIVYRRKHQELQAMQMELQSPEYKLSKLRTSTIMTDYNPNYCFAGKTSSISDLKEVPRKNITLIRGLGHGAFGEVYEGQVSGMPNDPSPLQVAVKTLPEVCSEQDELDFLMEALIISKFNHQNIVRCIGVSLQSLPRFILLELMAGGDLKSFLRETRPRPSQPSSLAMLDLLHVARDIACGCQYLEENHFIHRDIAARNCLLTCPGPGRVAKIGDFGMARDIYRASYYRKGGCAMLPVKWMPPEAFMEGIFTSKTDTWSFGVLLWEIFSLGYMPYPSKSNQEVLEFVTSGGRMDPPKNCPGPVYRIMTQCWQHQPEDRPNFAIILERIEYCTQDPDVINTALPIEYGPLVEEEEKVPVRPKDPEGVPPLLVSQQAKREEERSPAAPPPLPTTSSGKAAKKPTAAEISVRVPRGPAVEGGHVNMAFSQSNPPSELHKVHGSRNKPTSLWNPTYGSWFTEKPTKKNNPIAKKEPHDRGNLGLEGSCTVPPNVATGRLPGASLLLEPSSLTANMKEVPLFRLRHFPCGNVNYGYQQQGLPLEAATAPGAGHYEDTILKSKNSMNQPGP
Description: Inhibition of recombinant ALK (unknown origin) after 1 hr by fluorescence assay

NCI-H2228 [2] = assay: Induction of apoptosis in human NCI-H2228 cells after 48 hrs by annexin V-FITC/propidium iodide staining-based flow cytometric method; format: functional, cell-based
NCI-H2228 [3] = assay: Anticlonogenic activity against human NCI-H2228 cells treated every 3 days for 10 days by crystal violet staining based assay; format: functional, cell-based
[4] = target: T1, ALK tyrosine kinase receptor; assay: Inhibition of EML4-fused ALK in human NCI-H2228 cells assessed as suppression of AKT phosphorylation after 48 hrs by Western blot method; format: cell-based
Target sequence in this assay (Q9UM73 19-1620 limits assumed): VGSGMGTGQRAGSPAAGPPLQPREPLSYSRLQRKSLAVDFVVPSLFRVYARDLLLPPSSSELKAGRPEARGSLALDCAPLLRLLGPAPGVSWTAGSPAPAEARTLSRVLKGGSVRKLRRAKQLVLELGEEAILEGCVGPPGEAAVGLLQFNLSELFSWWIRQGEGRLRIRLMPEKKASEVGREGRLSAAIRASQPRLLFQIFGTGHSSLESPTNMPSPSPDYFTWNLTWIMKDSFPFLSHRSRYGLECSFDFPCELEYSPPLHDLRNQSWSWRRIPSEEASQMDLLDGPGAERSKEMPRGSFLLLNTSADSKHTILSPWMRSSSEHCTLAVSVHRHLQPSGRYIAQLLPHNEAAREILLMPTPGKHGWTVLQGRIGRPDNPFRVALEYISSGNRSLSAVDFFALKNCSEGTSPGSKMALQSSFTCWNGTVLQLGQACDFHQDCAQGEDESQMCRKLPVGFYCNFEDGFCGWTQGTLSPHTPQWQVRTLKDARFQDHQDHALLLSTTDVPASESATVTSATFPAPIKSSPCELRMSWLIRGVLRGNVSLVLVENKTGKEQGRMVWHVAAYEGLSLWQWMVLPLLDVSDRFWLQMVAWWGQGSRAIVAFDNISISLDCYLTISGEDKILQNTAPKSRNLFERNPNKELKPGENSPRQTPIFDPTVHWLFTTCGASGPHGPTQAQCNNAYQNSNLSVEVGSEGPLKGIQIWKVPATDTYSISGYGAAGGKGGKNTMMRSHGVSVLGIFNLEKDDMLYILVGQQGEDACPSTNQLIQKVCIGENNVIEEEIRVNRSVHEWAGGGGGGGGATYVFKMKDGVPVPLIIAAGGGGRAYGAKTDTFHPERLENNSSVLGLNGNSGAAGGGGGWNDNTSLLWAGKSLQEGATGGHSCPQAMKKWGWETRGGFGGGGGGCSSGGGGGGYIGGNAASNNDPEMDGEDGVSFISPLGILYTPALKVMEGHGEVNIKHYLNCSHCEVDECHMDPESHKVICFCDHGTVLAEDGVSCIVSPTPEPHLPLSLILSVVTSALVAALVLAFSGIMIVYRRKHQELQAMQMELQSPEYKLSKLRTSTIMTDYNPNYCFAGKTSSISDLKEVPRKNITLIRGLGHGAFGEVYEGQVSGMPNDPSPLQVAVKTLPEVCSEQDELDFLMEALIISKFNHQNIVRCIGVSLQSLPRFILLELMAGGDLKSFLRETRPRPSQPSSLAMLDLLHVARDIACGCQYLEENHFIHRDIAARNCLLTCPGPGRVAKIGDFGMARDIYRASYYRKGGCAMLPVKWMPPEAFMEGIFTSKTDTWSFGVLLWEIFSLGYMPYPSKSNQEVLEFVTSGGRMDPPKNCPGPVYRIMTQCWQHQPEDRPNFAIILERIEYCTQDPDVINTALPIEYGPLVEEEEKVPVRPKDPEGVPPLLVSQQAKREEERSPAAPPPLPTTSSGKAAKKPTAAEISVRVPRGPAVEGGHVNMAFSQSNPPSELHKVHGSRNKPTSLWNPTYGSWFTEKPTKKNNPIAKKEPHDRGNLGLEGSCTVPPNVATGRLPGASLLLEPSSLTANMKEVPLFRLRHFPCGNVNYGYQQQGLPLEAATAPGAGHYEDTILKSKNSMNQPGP

[5] = target: T1, ALK tyrosine kinase receptor; assay: Inhibition of EML4-fused ALK in human NCI-H2228 cells assessed as suppression of STAT3 phosphorylation after 48 hrs by Western blot method; format: cell-based
Target sequence in this assay (Q9UM73 19-1620 limits assumed): as above

NCI-H2228 [6] = assay: Induction of apoptosis in human NCI-H2228 cells at 5 uM after 48 hrs by annexin V-FITC/propidium iodide staining-based flow cytometric method (reference value: 4.5%); format: functional
NCI-H2228 [7] = assay: cells; conditions: Homo sapiens, NCI-H2228, 72 h
Description: (§1) Cytotoxicity against human NCI-H2228 cells harboring EML4-ALK fusion protein assessed as decrease in cell viability after 72 hrs by MTT assay

NCI-H2228 [8] = assay: Induction of apoptosis in human NCI-H2228 cells at 10 uM after 48 hrs by annexin V-FITC/propidium iodide staining-based flow cytometric method (reference value: 4.5%); format: functional
NCI-H2228 [9] = conditions: Homo sapiens
Description: as §1

[10] = target: T1, ALK tyrosine kinase receptor; assay: Inhibition of EML4-fused ALK autophosphorylation at Tyr1282/1283 in human NCI-H2228 cells at 2.5 to 10 uM after 48 hrs by Western blot method; format: cell-based
Target sequence in this assay (Q9UM73 19-1620 limits assumed): as above

[11] = target: T1, ALK tyrosine kinase receptor; assay: Inhibition of EML4-fused ALK in human NCI-H2228 cells assessed as suppression of ERK1/2 phosphorylation after 48 hrs by Western blot method; format: cell-based
Target sequence in this assay (Q9UM73 19-1620 limits assumed): as above

## CC1=C(C)C2C(=O)N3N=C(NCCCN(C)C)c4ccccc4C3=NC2S1 (stereo unspecified)
[1]
  EC50: 19.6 µM
NCI-H2228 [2]
  Activity: Dose-dependent effect
NCI-H2228 [3]
  Activity: Active
[4]
  inhibition: Dose-dependent effect
[5]
  inhibition: Dose-dependent effect
NCI-H2228 [6]
  Activity: 23.5%
NCI-H2228 [7]
  IC50: 4.11 µM
NCI-H2228 [8]
  Activity: 37.5%
NCI-H2228 [9]
  Activity: Dose-dependent effect
[10]
  inhibition: Active
[11]
  inhibition: Dose-dependent effect
